Laboratory results taken from patent US20130202698A1 (NANJING SANHOME PHARMACEUTICAL CO., LTD., priority 2005, published 2013).
Read-outs that look alike come from different tables or passages of the source. Marks after values point to notes of the source that are not given here.

Tests used:
[1] = tested on: thiopental-induced hypnosis; test: Effects on thiopental-induced hypnosis; conditions: mice, 30 min before sodium thiopental 40 mg/kg IP, Mean ± SD, n=10
Protocol: A total of 70 mice were divided into 7 groups with 10 mice in each group (half male and half female), and animals were fasted for 8 hours before study. Vehicle control and ornidazole enantiomers were injected intraperitoneal (IP), after 30 minutes, sodium thiopental was then given IP: at 40 mg/kg.
Levo-, dextro-ornidazole and racemate are studied and compared in 6 treatment groups at 2 different dose levels of 40 and 80 mg/kg. The dose volume is 0.2 mL/10 gram and infusion rate is 0.2 mL/10 seconds.

[2] = Phase II clinical trial, oral tablets, departments of obstetrics/gynecology, adverse events; format: in vivo, human; conditions: human phase II, oral, obstetrics/gynecology
Protocol: Double-blinded randomized controlled trials were carried out to compare the adverse events of oral levo-ornidazole with racemate treatment groups. Two separate studies were conducted for patients with infections from either department of stomatology or obstetrics/gynecology.

[3] = Phase II clinical trial, intravenous, adverse events; format: in vivo, human; conditions: human phase II, I.V.
Protocol: A double-blinded randomized controlled trial was carried out to compare the adverse events between the I.V. levo-ornidazole and racemate treatment groups. […] The high rate of adverse events observed from the treatment by the racemic drug caused patient treatment non-compliant, which could be dangerous for life-threatening infections.

[4] = tested on: Strychnine-induced convulsion; test: Anticonvulsant effects on Strychnine-induced convulsion in mice; format: in vivo; conditions: n=10; for Convulsion Latency: Mean ± SD
Protocol: (§1) Mice are randomized into 4 treatment groups (n=10 with half male and half female): dextro- or levo-ornidazole (dosage 40, 80, 160 mg/kg), vehicle control group (15% propylene glycol in 0.9% sodium chloride, 20 mL/kg) and the positive control group. Animals are treated with known convulsion-inducing agents, followed by the drug or vehicle control given intravenously. The dose volume is 20 mL/kg with an infusion rate of 0.2 mL/10 seconds. The anticonvulsant effects are observed and recorded (see Tables 2-6).

[5] = tested on: isoniazid-induced convulsion; test: Anticonvulsant effects on isoniazid-induced convulsion in mice; format: in vivo; conditions: Mean ± SD, n=10
Protocol: as §1

glutamate = test: Effects on excitatory neurotransmitter glutamate levels in mice brain; format: in vivo; conditions: FIG. 4
Source text: In another experiment, the effects on excitatory neurotransmitter levels by levo- and dextro-ornidazole were compared.

[6] = tested on: spontaneous activities of mice; conditions: both, mouse, in vivo, iv
Protocol: Mice weighing 18-22 g, half male and half female, were placed in the laboratory 24 hours before the test to adapt to the environment. The room temperature was controlled at 24±2° C. Animals were fasted for 8 hours before testing, and then placed in a transparent cage. The number of spontaneous activities of mice was counted by an automatic device (model XZ-4 by Drug Research Institute of China Academy of Medical Sciences). Mice were pre-screened by counting their spontaneous activities for five minutes and unqualified mice were excluded. A total of 110 mice were selected and divided into 11 groups with 10 mice in each group.
Chlorpromazine (3 mg/kg) was used as the positive control. The dose volume was 0.2 mL/10 gram and infusion rate was 0.2 mL/10 seconds.

[7] = rat, in vivo
Purkinje cells = conditions: dog, in vivo, 200 mg/kg
Protocol: Male and female Beagle dogs were kept in laboratory conditions for 1 week to observe general health conditions. […] Animals were treated at dose of I.V. 200 mg/kg for ornidazole enantiomers, or 10 mL/kg for vehicle control for 2 weeks, then sacrificed for anatomical and pathological examinations.
Quantitative data were analyzed by group test and qualitative data by simplified direct probability method. A 10×10 area under low magnification was used to count cerebellar Purkinje cells.

[8] = tested on: motor balance and coordination; conditions: both, mouse, in vivo
Protocol: Motor balance and coordination were tested using a modified beam walking method. Mice were put on a smooth beam tilted at an angle of 70 degree. Mice passed the test by standing on the beam for 0.5 minute without falling off. All the mice were pre-screened before the studies, and a total of 110 mice were selected by passing the beam test in 3 consecutive tries. The selected mice were divided into 11 groups with 10 mice in each group (half male and half female). At certain time points after drug administration, mice were tested on the beam for 3 consecutive times. A mouse was counted as failing to the test if it fell off the beam for 2 or more times.
The dose volume was 0.2 mL/10 gram and infusion rate was 0.2 mL/10 seconds. Chlorpromazine was used as the positive control.

## Cc1ncc([N+](=O)[O-])n1CC(O)CCl (racemic) [Racemic ornidazole, 1-(3-Chloro-2-hydroxypropyl)-2-methyl-5-nitroimidazole]
[1]; 40 mg/kg IP
  Sleeping Time: 74.0 ± 51.3 min
  Time to Lose Righting Reflex: 2.1 ± 0.3 min
[1]; 80 mg/kg IP
  Sleeping Time: 106.6 ± 99.2 min
  Time to Lose Righting Reflex: 1.9 ± 0.4 min
[2]
  Abdominal pain, # of Patients with AE: 1
  Abdominal pain, Incidence (%): 0.70%
  Appetite drop, # of Patients with AE: 2
  Appetite drop, Incidence (%): 1.41%
  Bitter taste, # of Patients with AE: 1
  Bitter taste, Incidence (%): 0.70%
  Bloating, # of Patients with AE: 3
  Bloating, Incidence (%): 2.11%
  Blurred vision, # of Patients with AE: 1
  Blurred vision, Incidence (%): 0.70%
  Breast tenderness, # of Patients with AE: 1
  Breast tenderness, Incidence (%): 0.70%
  Chest tightness, # of Patients with AE: 2
  Chest tightness, Incidence (%): 1.41%
  Dazzle, # of Patients with AE: 1
  Dazzle, Incidence (%): 0.70%
  Diarrhea, # of Patients with AE: 1
  Diarrhea, Incidence (%): 0.70%
  Dizziness, # of Patients with AE: 4
  Dizziness, Incidence (%): 2.82%
  Dry mouth, # of Patients with AE: 1
  Dry mouth, Incidence (%): 0.70%
  Headache, # of Patients with AE: 1
  Headache, Incidence (%): 0.70%
  Hypersomnia, # of Patients with AE: 8
  Hypersomnia, Incidence (%): 5.63%
  Hypodynamia, # of Patients with AE: 2
  Hypodynamia, Incidence (%): 1.41%
  Nausea, # of Patients with AE: 7
  Nausea, Incidence (%): 4.93%
  Oral malodor, # of Patients with AE: 0
  Oral malodor, Incidence (%): 0.00%
  Rash, # of Patients with AE: 0
  Rash, Incidence (%): 0.00%
  Stomach ache, # of Patients with AE: 0
  Stomach ache, Incidence (%): 0.00%
  Stomach discomfort, # of Patients with AE: 4
  Stomach discomfort, Incidence (%): 2.82%
  Total incidence rate of adverse events: 19.72%
  Vertigo, # of Patients with AE: 8
  Vertigo, Incidence (%): 5.63%
  Vomiting, # of Patients with AE: 1
  Vomiting, Incidence (%): 0.70%
[2]; out of 143 (levo) / 142 (racemate) patients
  Patients with adverse events (total): 28 patients
[3]
  Adverse events reported (total): 42
  Appetite drop, # of Patients with AE: 0
  Appetite drop, Incidence (%): 0.00%
  Dizziness, # of Patients with AE: 5
  Dizziness, Incidence (%): 3.60%
  Dry mouth, # of Patients with AE: 2
  Dry mouth, Incidence (%): 1.44%
  Headache, # of Patients with AE: 1
  Headache, Incidence (%): 0.72%
  Hypersomnia, # of Patients with AE: 10
  Hypersomnia, Incidence (%): 7.19^## %
  Hypodynamia, # of Patients with AE: 1
  Hypodynamia, Incidence (%): 0.72%
  Nausea, # of Patients with AE: 1
  Nausea, Incidence (%): 0.72%
  Stomach discomfort, # of Patients with AE: 1
  Stomach discomfort, Incidence (%): 0.72%
  Total incidence rate of adverse events: 21.58%
  Vertigo, # of Patients with AE: 17
  Vertigo, Incidence (%): 12.23^## %
  Vomiting, # of Patients with AE: 1
  Vomiting, Incidence (%): 0.72%
  WBC decline, # of Patients with AE: 3
  WBC decline, Incidence (%): 2.16%
[3]; out of 136 (levo) / 139 (racemate) patients
  Patients with adverse events (total): 30 patients

## Cc1ncc([N+](=O)[O-])n1C[C@@H](O)CCl [D-ornidazole, R-(+)-ornidazole]
[4]; 40 mg/kg i.v.
  Convulsion Latency: 6.0 ± 0.7 min
  Mortality Rate: 10/10
[4]; 80 mg/kg i.v.
  Convulsion Latency: 8.0 ± 2.0 min
  Mortality Rate: 7/10
[4]; 160 mg/kg i.v.
  Convulsion Latency: 9.1 ± 2.6 min
  Mortality Rate: 1/10**
[5]; 40 mg/kg i.v.
  Convulsion Latency: 43.2 ± 5.4 min
  Time to Death: 53.6 ± 7.2 min
[5]; 80 mg/kg i.v.
  Convulsion Latency: 46.1 ± 2.2 min
  Time to Death: 57.0 ± 7.3 min
[5]; 160 mg/kg i.v.
  Convulsion Latency: 48.3 ± 14.1 min
  Time to Death: 81.5 ± 15.8 min
glutamate
  Effect on glutamate levels in cerebrum and cerebellum: significantly decreased
[6]; 40 mg/kg, 0.5 h
  Spontaneous Activities (per 5 min): 52 ± 23 per 5 min
[6]; 40 mg/kg, 1 h
  Spontaneous Activities (per 5 min): 44 ± 19 per 5 min
[6]; 40 mg/kg, 2 h
  Spontaneous Activities (per 5 min): 35 ± 20 per 5 min
[6]; 40 mg/kg, 3 h
  Spontaneous Activities (per 5 min): 47 ± 33 per 5 min
[6]; 40 mg/kg, 4 h
  Spontaneous Activities (per 5 min): 62 ± 31 per 5 min
[6]; 80 mg/kg, 0.5 h
  Spontaneous Activities (per 5 min): 25 ± 15 per 5 min
[6]; 80 mg/kg, 1 h
  Spontaneous Activities (per 5 min): 16 ± 21 per 5 min
[6]; 80 mg/kg, 2 h
  Spontaneous Activities (per 5 min): 17 ± 15 per 5 min
[6]; 80 mg/kg, 3 h
  Spontaneous Activities (per 5 min): 27 ± 17 per 5 min
[6]; 80 mg/kg, 4 h
  Spontaneous Activities (per 5 min): 34 ± 17 per 5 min
[6]; 160 mg/kg, 0.5 h
  Spontaneous Activities (per 5 min): 0 ± 0 per 5 min
[6]; 160 mg/kg, 1 h
  Spontaneous Activities (per 5 min): 0 ± 0 per 5 min
[6]; 160 mg/kg, 2 h
  Spontaneous Activities (per 5 min): 0 ± 0 per 5 min
[6]; 160 mg/kg, 3 h
  Spontaneous Activities (per 5 min): 3 ± 3 per 5 min
[6]; 160 mg/kg, 4 h
  Spontaneous Activities (per 5 min): 5 ± 5 per 5 min
[7]
  Distribution in different region of brain, levo- vs dextro-ornidazole: Similar
Purkinje cells
  Purkinje cell morphology: Purkinje cell denaturing and morphology change
[8]; 40 mg/kg, 0.5 h
  Number of Animals Fall Off: 0
[8]; 40 mg/kg, 1 h
  Number of Animals Fall Off: 1
[8]; 40 mg/kg, 2 h
  Number of Animals Fall Off: 2
[8]; 40 mg/kg, 3 h
  Number of Animals Fall Off: 3
[8]; 40 mg/kg, 4 h
  Number of Animals Fall Off: 0
[8]; 80 mg/kg, 0.5 h
  Number of Animals Fall Off: 3
[8]; 80 mg/kg, 1 h
  Number of Animals Fall Off: 3
[8]; 80 mg/kg, 2 h
  Number of Animals Fall Off: 2
[8]; 80 mg/kg, 3 h
  Number of Animals Fall Off: 1
[8]; 80 mg/kg, 4 h
  Number of Animals Fall Off: 0
[8]; 160 mg/kg, 0.5 h
  Number of Animals Fall Off: 10##
[8]; 160 mg/kg, 1 h
  Number of Animals Fall Off: 10##
[8]; 160 mg/kg, 2 h
  Number of Animals Fall Off: 10##
[8]; 160 mg/kg, 3 h
  Number of Animals Fall Off: 10##
[8]; 160 mg/kg, 4 h
  Number of Animals Fall Off: 9##
